{"source": "patent US20140322708A1", "about": "“METHOD FOR MEASURING SOMATIC DNA […]” (Albert Einstein College of Medicine of Yeshiva University, priority 2011, published 2014)", "key": {"[1]": {"system": "S2 cells", "test": "Cell survival after ENU treatment", "type": "cell-based, Drosophila melanogaster", "conditions": "72-h post-treatment, 4.2 mM ENU", "procedure": "To assess somatic mutation spectra in single cells in a genome-wide manner S2 cells derived from Drosophila melanogaster, an organism with a genome size of 160 MB, were used. The strategy followed is outlined in FIG. 1B. Individual single cells were picked from an S2 cell culture 72-h after treatment with 4.2 mM of the powerful point mutagen N-ethyl-N-nitrosourea (ENU) or mock treated with solvent (control). At 72-h post-treatment virtually no lesions remain (6,7) and cell survival is greater than 90% (8) (results not shown). Each single cell was lysed and subjected to whole genome amplification (WGA) using an optimized multiple displacement amplification (MDA) protocol (see Methods and Materials)(9). The amplified cells were first screened for locus dropout by qPCR using primer pairs distributed over the different chromosomes (FIG. 5). […] To identify all possible mutations, either spontaneously formed in the unexposed, control cells or induced by ENU in the treated cells, the libraries were sequenced from both ends, generating between 50-100 million 108-bp paired-end reads per cell. […] Briefly, aligned sequence data from the unamplified sample and a single cell was compared and all differences with the reference sequence were recorded as variants. […]"}, "[2]": {"system": "mouse embryonic fibroblast (MEF)", "test": "Single cell reduced representation (MseI) sequencing for somatic point mutations after ENU treatment", "type": "cell-based", "procedure": "Therefore, the procedure shown in FIG. 1B was slightly modified, using a reduced representation approach based on restriction enzyme digestion. For this purpose mouse embryonic fibroblast (MEF) populations were used either treated with 4.2 mM ENU or mock-treated with solvent only. Instead of preparing sequencing libraries directly using randomly fragmented DNA, whole genome amplified DNA was digested from two treated and two control MEFs, as well as unamplified genomic DNA from the MEF population, with MseI, a four-base cutter with a TTAA cleavage site. Following digestion an agarose gel size-selection was performed for fragments between 250-bp and 350-bp, corresponding to a target region of approximately 300 MB. The fragments were sequenced using 121-bp single-end reads. […] Due to the nature of the reduced representation library, the strand bias filter could not be used and therefore a more stringent mutant read frequency cutoff (>40%) was adopted. Out of the 300-MB target region, 220 MB (73%) had sufficient coverage (10×) in the unamplified control sample and 85-93 MB (39-42%) of the 220 MB overlapped with regions of sufficient coverage in the single MEFs. Due to the absence of a sufficient number of heterozygous SNPs in the MEF cell line, allele dropout was estimated using the distribution of mutant read frequencies found in the ENU-treated MEF cells.\nSingle cells were collected under an inverted microscope by hand-held capillaries, deposited in PCR tubes along with 2 μl of culture medium, and immediately frozen on dry ice. Cells were lysed and amplified using the REPLI-g UltraFast Mini kit (Qiagen, Santa Clara, Calif.) according to the manufacturer's instructions, but using an initial 30-min amplification at 30° C. followed by an 18-hour amplification at 35° C. The reaction products were purified using AMPure XP magnetic beads (Agencourt, Beverly, Mass.) and the reaction yield was measured using the NanoDrop 1000 spectrophotometer (Nanodrop Technologies LLC, Wilmington, Del.). Reactions with yield of greater than 1 μg were tested for locus dropout at eight loci using comparative Ct measurements from real-time PCR (StepOne Plus, Applied Biosystems, Foster City, Calif.) performed with Fast SYBR® Green Master Mix (Foster City, Calif.). Up to 5 μg of DNA from samples displaying the least biased amplification was used as input for Illumina libraries. DNA was either randomly fragmented (S2 cells) or digested (MEFs) with 50 U of Msei (NEB, Ipswich, Mass.). Digested DNA (MEFs) was end-repaired using Mung Bean Nuclease (NEB, Ipswich, Mass.) and then used as input for the Illumina library preparation. S2 libraries were size-selected to 475-525-bp and MEF libraries were size selected to 250-350-bp using agarose gel electrophoresis. […] The aligned sequence data was processed using genome analysis toolkit (GATK) (e.g., available at www.broadinstitute.org) to realign reads containing indels or a high entropy of mismatches, recalibrate the base quality scores, and to compute coverage data and statistics. Somatic point mutations and germline variation were scored using a pipeline composed of SAMtools mpileup command (e.g., available at samtools.sourceforge.net/mpileup.shtml), VarScan somatic command (e.g., available at varscan.sourceforge.net/somatic-calling.html) and a custom script to parse and filter the VarScan output. Somatic events found in multiple single cells were discarded, as were events found in at least one read in the unamplified control sample. […]"}, "[3]": {"system": "S2 cells", "test": "Single cell whole genome sequencing for somatic point mutations after ENU treatment", "type": "cell-based, Drosophila melanogaster", "procedure": "To assess somatic mutation spectra in single cells in a genome-wide manner S2 cells derived from Drosophila melanogaster, an organism with a genome size of 160 MB, were used. The strategy followed is outlined in FIG. 1B. Individual single cells were picked from an S2 cell culture 72-h after treatment with 4.2 mM of the powerful point mutagen N-ethyl-N-nitrosourea (ENU) or mock treated with solvent (control). At 72-h post-treatment virtually no lesions remain (6,7) and cell survival is greater than 90% (8) (results not shown). Each single cell was lysed and subjected to whole genome amplification (WGA) using an optimized multiple displacement amplification (MDA) protocol (see Methods and Materials)(9). The amplified cells were first screened for locus dropout by qPCR using primer pairs distributed over the different chromosomes (FIG. 5). DNA from the cells displaying the least amount of dropout was fragmented and processed to generate sequencing libraries for the Illumina HiSeq platform. In this way libraries of three untreated and three ENU-treated cells were prepared. For comparison, a similar library was made from unamplified total genomic DNA from the untreated S2 cell population. To identify all possible mutations, either spontaneously formed in the unexposed, control cells or induced by ENU in the treated cells, the libraries were sequenced from both ends, generating between 50-100 million 108-bp paired-end reads per cell. Alignment to the Drosophila reference sequence (dm3) was performed using BWA (10), and post-processing was completed using the Genome Analysis Toolkit (GATK) (11). […] Since ENU is a point mutagen the subsequent analysis was based on this type of mutations only. The pipeline developed for somatic point mutation discovery is described in further detail in the Methods and Materials section. Briefly, aligned sequence data from the unamplified sample and a single cell was compared and all differences with the reference sequence were recorded as variants. Variants with sufficient coverage (20×) in both the unamplified and the single cell sample were classified as “germline” or “somatic” based on whether the variant was shared between the two samples. Somatic variants were further processed using a strand-bias filter and were visually validated using the Integrative Genomics Viewer (IGV) (12).\nSingle cells were collected under an inverted microscope by hand-held capillaries, deposited in PCR tubes along with 2 μl of culture medium, and immediately frozen on dry ice. […] The reaction products were purified using AMPure XP magnetic beads (Agencourt, Beverly, Mass.) and the reaction yield was measured using the NanoDrop 1000 spectrophotometer (Nanodrop Technologies LLC, Wilmington, Del.). […]"}, "[4]": {"system": "S2 cells", "test": "Reduced representation paired-end sequencing assay for genome rearrangements in bleomycin-treated cells", "type": "cell-based, Drosophila melanogaster", "conditions": "bleomycin-treated S2 cells as compared to untreated cells", "procedure": "Genomic DNA from cultured mouse (embryonic fibroblasts; MEFs) and fly (Drosophila melanogaster embryo cell line; S2) cells was analyzed by paired-end (“PE”) sequencing after a restriction enzyme digestion (HindIII for mouse and PstI for fly) and size selection. The fly and mouse genomes are structured very differently, with the mouse genome consisting of close to 50% repetitive DNA and the fly genome only 3%. The libraries were sequenced using a paired-end kit on the Illumina® Genome Analyzer fix with a read length of 85 bp. […] Alterations in the distance between two PE reads relative to the distance predicted by the RefSeq indicate putative genome rearrangements. […] First, any read pairs that had mapping quality scores lower than 30 (e.g. see Li H, Ruan J, Durbin R. (2008) Mapping short DNA sequencing reads and calling variants using mapping quality scores. Genome Research 18:1851-1858, hereby incorporated by reference in its entirety, for mapping scores) were filtered out. This removed repeat-spanning reads with ambiguous placement on the reference genome. […]\nIt was reasoned that treatment of S2 cells with a clastogen should give rise to elevated frequencies of genome rearrangements. […] The frequencies of genome rearrangements were expressed per read pair. […]"}, "[5]": {"conditions": "single MEF, treated with 4.2 mM ENU"}, "[6]": {"conditions": "single S2 cell, 72-h after treatment with 4.2 mM ENU"}}, "note": "“And” between values parts separate entries of the source, which are not always exact repeats. Equal values may be shown once."}
{"molecule": "CCN(N=O)C(N)=O", "note": "[ENU, N-ethyl-N-nitrosourea]", "values": [{"measurement": "cell survival", "setting": "[1]", "result": "greater than 90%"}, {"measurement": "induction of point mutations", "setting": "[2]; ENU-treated MEF cells vs control MEFs", "result": 35, "unit": "fold"}, {"measurement": "majority of the ENU-induced mutations (mutation spectrum)", "setting": "[2]; MEF cells", "result": "T->A, T->C and G->A mutations"}, {"measurement": "ENU-induced mutation frequency in MEF cells, higher than that found in the S2 cells", "setting": "[2]; mutations per MB, MEF vs S2", "result": 30, "unit": "%"}, {"measurement": "Mutations per Mb", "setting": "[2]; [5]", "result": "3.97 and 3.91"}, {"measurement": "Point mutations", "setting": "[2]; [5]", "result": "426 and 446"}, {"measurement": "majority of the ENU-induced mutations (mutation spectrum)", "setting": "[3]; S2 cells", "result": "T->A, T->C and G->A mutations"}, {"measurement": "induction of point mutations", "setting": "[3]; on average in the exposed S2 cells vs control cells", "result": 7.5, "unit": "fold"}, {"measurement": "Mutations per Mb", "setting": "[3]; [6]", "result": "3.27 and 2.54 and 3.18"}, {"measurement": "Point mutations", "setting": "[3]; [6]", "result": "938 and 482 and 690"}]}
{"molecule": "bleomycin", "values": [{"measurement": "increase in genomic mutation frequency (genome rearrangements per read pair)", "setting": "[4]", "result": "approximately 3 fold"}]}
